Structures are written as SMILES. pIC50: −log10 of the molar value. Bounds are passed on as bounds.

Assay [1] deals with T1, Protein deacetylase HDAC6 (Homo sapiens, UniProt Q9UBN7).
T1 sequence (Q9UBN7 whole entry): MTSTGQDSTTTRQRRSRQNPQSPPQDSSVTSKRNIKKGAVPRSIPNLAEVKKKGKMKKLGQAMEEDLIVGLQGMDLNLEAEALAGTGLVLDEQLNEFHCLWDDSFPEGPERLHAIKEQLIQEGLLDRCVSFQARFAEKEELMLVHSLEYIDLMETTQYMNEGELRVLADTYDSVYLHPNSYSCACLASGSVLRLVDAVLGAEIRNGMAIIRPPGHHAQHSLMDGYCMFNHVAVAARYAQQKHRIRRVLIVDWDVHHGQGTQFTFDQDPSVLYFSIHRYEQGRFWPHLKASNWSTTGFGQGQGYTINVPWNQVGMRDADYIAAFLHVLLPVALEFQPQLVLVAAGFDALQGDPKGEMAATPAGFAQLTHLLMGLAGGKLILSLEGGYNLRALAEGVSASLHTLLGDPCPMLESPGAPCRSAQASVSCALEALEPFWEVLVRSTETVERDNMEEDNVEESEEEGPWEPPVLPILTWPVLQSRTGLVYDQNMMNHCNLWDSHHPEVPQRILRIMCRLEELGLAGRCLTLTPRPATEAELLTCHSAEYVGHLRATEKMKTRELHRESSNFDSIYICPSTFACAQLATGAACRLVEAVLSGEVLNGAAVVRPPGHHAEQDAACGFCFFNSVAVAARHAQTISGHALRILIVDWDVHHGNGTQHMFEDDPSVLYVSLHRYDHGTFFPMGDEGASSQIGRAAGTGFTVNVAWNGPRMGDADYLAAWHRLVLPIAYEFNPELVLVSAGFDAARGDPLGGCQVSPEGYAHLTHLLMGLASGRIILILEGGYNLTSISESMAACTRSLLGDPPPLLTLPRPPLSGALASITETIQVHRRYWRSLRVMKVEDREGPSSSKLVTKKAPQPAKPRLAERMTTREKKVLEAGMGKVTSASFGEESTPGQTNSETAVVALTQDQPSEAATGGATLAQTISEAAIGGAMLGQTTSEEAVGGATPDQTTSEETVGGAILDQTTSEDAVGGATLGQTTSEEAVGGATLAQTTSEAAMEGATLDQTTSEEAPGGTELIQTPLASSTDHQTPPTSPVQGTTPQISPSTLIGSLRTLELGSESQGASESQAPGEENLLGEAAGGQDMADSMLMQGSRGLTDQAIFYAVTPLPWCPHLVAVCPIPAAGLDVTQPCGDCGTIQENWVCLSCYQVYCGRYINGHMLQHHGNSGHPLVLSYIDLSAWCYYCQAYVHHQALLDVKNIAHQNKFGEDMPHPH
The assay can be described thus: biochemical.

Assay [2] addresses Histone deacetylase 3/Nuclear receptor corepressor 2 (HDAC3/NCoR2) (Homo sapiens, UniProt O15379). The assay can be described thus: biochemical.
Assay [3] deals with T2, Histone deacetylase 1 (Homo sapiens, UniProt Q13547). The experiment in a line: biochemical.
Assay [4] deals with T3, Amine oxidase [flavin-containing] B (Homo sapiens, UniProt P27338).
T3 sequence (P27338 whole entry): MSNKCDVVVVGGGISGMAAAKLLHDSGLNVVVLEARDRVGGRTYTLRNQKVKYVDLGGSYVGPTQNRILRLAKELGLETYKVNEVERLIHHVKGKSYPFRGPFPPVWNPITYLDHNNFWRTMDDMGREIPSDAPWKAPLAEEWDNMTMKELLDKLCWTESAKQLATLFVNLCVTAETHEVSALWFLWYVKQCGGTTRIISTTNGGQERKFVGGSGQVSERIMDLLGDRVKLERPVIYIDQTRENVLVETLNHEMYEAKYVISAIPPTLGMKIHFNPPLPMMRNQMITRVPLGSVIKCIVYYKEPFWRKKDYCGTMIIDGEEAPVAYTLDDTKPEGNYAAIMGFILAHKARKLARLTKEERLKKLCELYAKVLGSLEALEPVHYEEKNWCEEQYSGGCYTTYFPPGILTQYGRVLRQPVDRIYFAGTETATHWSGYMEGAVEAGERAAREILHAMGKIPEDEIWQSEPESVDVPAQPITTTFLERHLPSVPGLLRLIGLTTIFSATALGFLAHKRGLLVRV
Conditions: read-out: INH.
Description: Inhibition of human recombinant MAO-B using para-tyramine as substrate at 1 uM by Amplex Red fluorimetric assay relative to control

Another assay has as its target Histone deacetylase 2 (Homo sapiens, UniProt Q92769). The assay can be described thus: biochemical.
The target in assay [5] is T2, Histone deacetylase 1. The experiment in a line: biochemical. The source holds these as a separate data set.
A further assay deals with Cholinesterase (Equus caballus, UniProt P81908).
Chain of Cholinesterase (P81908 whole entry): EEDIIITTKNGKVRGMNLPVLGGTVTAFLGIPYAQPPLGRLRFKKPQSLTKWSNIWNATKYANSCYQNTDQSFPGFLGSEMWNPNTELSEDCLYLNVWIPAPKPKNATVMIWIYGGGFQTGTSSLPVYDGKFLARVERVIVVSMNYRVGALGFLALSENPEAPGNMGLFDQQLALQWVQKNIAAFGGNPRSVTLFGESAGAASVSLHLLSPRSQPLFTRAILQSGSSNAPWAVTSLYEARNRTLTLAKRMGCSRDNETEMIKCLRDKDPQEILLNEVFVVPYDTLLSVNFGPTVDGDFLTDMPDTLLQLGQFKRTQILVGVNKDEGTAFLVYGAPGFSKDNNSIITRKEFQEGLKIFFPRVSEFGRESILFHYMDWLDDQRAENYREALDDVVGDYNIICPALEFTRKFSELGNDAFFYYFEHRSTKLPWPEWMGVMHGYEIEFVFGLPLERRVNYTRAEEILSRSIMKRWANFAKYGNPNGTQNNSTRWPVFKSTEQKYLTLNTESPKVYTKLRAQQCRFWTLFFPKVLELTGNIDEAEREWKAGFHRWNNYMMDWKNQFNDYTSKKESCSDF

Chain of Histone deacetylase 3/Nuclear receptor corepressor 2 (HDAC3/NCoR2) (O15379 whole entry): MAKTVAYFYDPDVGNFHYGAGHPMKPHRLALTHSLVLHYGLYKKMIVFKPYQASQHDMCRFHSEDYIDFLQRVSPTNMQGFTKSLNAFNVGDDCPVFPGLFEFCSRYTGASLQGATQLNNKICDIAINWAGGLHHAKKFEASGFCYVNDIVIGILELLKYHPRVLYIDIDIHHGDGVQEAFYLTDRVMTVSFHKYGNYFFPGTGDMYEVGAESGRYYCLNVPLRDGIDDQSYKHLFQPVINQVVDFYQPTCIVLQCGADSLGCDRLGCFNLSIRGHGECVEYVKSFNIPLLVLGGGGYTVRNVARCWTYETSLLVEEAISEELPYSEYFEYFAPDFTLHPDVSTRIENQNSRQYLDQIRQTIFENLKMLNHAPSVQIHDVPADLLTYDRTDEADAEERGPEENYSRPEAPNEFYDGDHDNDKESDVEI
Chain of Histone deacetylase 3/Nuclear receptor corepressor 2 (HDAC3/NCoR2) (Q9Y618 whole entry, further chain): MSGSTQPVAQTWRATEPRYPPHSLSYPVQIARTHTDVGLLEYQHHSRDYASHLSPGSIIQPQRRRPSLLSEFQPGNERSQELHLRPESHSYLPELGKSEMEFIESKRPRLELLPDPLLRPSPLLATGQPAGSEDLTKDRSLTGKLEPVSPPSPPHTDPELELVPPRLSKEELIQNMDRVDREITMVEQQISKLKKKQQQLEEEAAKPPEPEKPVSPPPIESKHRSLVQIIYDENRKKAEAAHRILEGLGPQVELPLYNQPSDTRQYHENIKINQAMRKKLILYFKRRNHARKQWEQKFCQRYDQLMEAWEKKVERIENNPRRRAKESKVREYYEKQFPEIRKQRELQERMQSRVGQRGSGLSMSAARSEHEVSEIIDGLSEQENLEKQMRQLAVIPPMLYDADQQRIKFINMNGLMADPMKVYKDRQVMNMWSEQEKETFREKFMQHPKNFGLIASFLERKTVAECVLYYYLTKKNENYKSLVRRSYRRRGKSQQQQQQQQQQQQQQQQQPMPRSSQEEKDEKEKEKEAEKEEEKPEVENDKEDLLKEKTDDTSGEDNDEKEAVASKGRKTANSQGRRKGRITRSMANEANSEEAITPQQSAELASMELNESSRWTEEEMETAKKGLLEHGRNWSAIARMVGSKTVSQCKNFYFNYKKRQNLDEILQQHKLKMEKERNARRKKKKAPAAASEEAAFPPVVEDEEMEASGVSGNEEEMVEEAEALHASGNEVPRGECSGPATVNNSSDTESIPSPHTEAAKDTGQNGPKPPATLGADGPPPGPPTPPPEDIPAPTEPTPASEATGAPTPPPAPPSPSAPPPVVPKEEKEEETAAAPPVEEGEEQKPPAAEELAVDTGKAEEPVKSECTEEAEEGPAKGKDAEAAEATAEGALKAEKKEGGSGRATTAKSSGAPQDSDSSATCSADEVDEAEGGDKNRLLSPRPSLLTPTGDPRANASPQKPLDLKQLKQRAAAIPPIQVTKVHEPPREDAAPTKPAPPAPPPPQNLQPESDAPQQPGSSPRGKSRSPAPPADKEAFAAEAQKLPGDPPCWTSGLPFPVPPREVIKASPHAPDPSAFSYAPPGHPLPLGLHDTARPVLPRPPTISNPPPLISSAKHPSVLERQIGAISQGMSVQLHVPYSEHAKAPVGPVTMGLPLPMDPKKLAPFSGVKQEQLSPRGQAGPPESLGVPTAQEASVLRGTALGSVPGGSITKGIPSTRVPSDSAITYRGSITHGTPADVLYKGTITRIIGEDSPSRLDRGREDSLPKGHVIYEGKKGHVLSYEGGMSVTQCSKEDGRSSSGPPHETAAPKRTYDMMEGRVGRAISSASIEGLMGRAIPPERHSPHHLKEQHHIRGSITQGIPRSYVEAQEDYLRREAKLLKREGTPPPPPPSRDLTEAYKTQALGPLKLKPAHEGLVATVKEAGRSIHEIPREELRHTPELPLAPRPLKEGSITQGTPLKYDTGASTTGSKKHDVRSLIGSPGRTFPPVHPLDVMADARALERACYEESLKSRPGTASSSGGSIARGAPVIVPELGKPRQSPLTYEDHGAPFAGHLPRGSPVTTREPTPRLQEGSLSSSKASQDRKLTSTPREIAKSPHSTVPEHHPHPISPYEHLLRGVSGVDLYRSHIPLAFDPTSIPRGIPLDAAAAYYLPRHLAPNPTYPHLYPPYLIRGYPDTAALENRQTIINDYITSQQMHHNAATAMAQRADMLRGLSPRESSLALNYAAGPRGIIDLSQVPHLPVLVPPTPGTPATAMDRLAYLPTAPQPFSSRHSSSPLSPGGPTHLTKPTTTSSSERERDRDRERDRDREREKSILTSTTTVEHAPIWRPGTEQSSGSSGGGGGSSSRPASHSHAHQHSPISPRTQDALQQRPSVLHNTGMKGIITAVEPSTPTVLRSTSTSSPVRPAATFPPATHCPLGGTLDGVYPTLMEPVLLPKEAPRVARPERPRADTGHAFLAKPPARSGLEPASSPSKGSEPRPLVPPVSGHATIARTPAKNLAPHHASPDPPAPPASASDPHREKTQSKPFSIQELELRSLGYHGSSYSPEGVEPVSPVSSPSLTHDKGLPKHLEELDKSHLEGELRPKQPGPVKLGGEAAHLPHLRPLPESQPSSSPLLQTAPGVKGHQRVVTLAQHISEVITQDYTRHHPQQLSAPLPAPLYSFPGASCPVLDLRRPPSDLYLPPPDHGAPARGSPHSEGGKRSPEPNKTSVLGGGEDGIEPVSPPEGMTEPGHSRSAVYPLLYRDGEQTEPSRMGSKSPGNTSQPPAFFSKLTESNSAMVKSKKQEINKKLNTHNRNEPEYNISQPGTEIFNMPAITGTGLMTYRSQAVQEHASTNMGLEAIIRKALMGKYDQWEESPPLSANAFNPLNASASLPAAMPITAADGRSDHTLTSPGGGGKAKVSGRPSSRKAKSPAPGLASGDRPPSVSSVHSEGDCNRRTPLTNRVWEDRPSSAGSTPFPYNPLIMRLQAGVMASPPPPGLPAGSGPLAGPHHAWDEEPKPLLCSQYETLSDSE
T2 sequence (Q13547 whole entry): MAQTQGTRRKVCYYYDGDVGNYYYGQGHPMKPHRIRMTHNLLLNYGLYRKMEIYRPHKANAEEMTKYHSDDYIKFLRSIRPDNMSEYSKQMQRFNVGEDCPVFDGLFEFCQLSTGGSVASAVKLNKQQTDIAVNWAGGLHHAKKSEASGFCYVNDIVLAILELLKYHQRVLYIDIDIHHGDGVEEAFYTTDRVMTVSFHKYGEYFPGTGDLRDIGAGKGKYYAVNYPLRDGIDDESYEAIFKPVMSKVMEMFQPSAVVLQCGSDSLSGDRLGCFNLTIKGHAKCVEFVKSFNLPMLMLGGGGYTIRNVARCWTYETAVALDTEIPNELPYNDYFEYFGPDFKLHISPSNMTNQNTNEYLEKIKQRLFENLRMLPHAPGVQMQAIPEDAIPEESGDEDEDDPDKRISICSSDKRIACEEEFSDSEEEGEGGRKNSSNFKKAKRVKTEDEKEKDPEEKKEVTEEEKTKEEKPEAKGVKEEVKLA
Chain of Histone deacetylase 2 (Q92769 whole entry): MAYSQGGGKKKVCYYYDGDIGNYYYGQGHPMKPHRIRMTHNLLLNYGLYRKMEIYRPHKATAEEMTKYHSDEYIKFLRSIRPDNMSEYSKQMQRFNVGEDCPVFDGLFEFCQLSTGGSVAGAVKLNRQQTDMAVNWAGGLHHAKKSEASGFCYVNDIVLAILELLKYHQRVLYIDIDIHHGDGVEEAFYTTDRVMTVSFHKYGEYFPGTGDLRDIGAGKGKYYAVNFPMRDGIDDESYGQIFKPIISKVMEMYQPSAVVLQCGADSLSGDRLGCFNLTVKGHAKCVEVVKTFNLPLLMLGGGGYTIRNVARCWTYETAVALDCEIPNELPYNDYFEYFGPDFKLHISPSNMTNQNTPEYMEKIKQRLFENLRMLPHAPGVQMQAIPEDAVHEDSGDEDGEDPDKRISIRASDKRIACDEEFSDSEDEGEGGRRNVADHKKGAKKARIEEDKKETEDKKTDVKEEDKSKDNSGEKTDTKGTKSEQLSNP

For `C#CCN(C)Cc1cc2cc(OCCCN3CCCCC3)ccc2n1C`, the negative-log IC50 (pIC50) (in assay [1]; in assay [2]; at Histone deacetylase 1 [3]) was less than 5.00 each time.

On to `COc1ccc2c(ccn2S(=O)(=O)c2ccc(C(=O)NO)cc2)c1`, for which the pIC50 in assay [1] is 6.77. In the case of `C#CCN1CCN(CCCOc2ccc3c(ccn3S(=O)(=O)c3ccc(C(=O)NO)cc3)c2)CC1`, in assay [4], the inhibition at 1 µM was 28%. The negative-log IC50 (pIC50) is 5.57 in assay [2] and 5.27 against Histone deacetylase 2. Regarding `O=C(NO)c1ccc(S(=O)(=O)n2ccc3cc(OCCCN4CCCCC4)ccc32)cc1`, the pIC50 at Histone deacetylase 1 [5] is 6.13; in assay [2] it was 6.03; against Histone deacetylase 2, 5.72. Moreover, the inhibition at 1 µM in assay [4] is less than 10%.

`C#CCN1CCN(CCCOc2ccc3c(ccn3S(=O)(=O)c3ccc(C(=O)Nc4ccccc4N)cc3)c2)CC1` had a pIC50 in assay [1] of less than 5.48. As for `O=C(NO)c1ccc(S(=O)(=O)n2ccc3cc(OCc4ccccc4)ccc32)cc1`, the pIC50 on Histone deacetylase 1 [5] was 5.40. The compound `CCCNNC(=O)c1ccc(S(=O)(=O)n2ccc3cc(OCCCN4CCCCC4)ccc32)cc1` had a negative-log IC50 (pIC50) in assay [1] of less than 5.00. Moreover, the inhibition at 1 µM in assay [4] is less than 10%. For the compound `NNC(=O)c1ccc(S(=O)(=O)n2ccc3cc(OCCCN4CCCCC4)ccc32)cc1`, the negative-log IC50 (pIC50) (in assay [1]; against Histone deacetylase 1 [5]) was less than 5.00 in each case. Compound `Nc1ccccc1NC(=O)c1ccc(S(=O)(=O)n2ccc3cc(OCc4ccccc4)ccc32)cc1` showed a negative-log IC50 (pIC50) in assay [1] of less than 5.00. Consider `CCCN(CCC)NC(=O)c1ccc(S(=O)(=O)n2ccc3cc(OC)ccc32)cc1`, for which the pIC50 (in assay [1]; on Histone deacetylase 1 [3]) was less than 5.00 in each case. As for `C#CCN1CCN(CCCOc2ccc3c(ccn3S(=O)(=O)c3ccc(C(=O)NN)cc3)c2)CC1`, the negative logarithm of the IC50 (pIC50) (in assay [1]; at Histone deacetylase 1 [5]) was less than 5.00 in each case. `COc1ccc2c(ccn2S(=O)(=O)c2ccc(C(=O)NN)cc2)c1`: the pIC50 (in assay [1]; at Histone deacetylase 1 [5]) was less than 5.00 in each case. Take `C#CCN1CCN(CCCOc2ccc3c(ccn3S(=O)(=O)c3ccc(C(=O)NNCCC)cc3)c2)CC1`: the values for the pIC50 (in assay [1]; against Cholinesterase) were less than 5.00 and 5.06, respectively. For the compound `NNC(=O)c1ccc(S(=O)(=O)n2ccc3cc(OCc4ccccc4)ccc32)cc1`, the pIC50 (in assay [1]; at Histone deacetylase 1 [5]) was less than 5.00 throughout. For `Nc1ccccc1NC(=O)c1ccc(S(=O)(=O)n2ccc3cc(OCCCN4CCCCC4)ccc32)cc1`, the pIC50 in assay [1] was less than 5.00. In the case of `CCCNNC(=O)c1ccc(S(=O)(=O)n2ccc3cc(OC)ccc32)cc1`, in assay [1], the negative logarithm of the IC50 (pIC50) is less than 5.00. In addition, the inhibition at 1 µM in assay [4] was less than 10%.

(Values after ChEMBL document CHEMBL5608242 (J Med Chem, 2024).)
